Patent US5328902A, “7-(substituted)-9-[(substituted glycyl)amido]-6-demethyl-6-deoxytetracyclines” (American Cyanamid Co., priority 1992, dated 1994)
Values after ≈ are worked out from the molar mass of the structure shown. Read-outs that look alike come from different tables or passages of the source.

Legend:
Format in all cases: cell-based
E. coli UBMS 88-1 Tet B = assay: microbe, parasite or virus in culture
[1] = test system: E. coli MC 4100 Tet sens.; assay: MIC, agar dilution
E. coli PRP1 Tet A = assay: microbe, parasite or virus in culture
[2] = test system: E. coli MC 4100 TNIOC Tet B; assay: microbe, parasite or virus in culture
E. coli UBMS 89-1 Tet M = assay: microbe, parasite or virus in culture
[3] = test system: E. coli UBMS 89-2 Tet sens.; assay: MIC, agar dilution
E. coli J2175 = assay: MIC, agar dilution
E. coli BAJ9003 IMP MUT = assay: microbe, parasite or virus in culture
E. coli UBMS 90-4 Tet M = assay: microbe, parasite or virus in culture
E. coli UBMS 90-5 = assay: MIC, agar dilution
E. coli #311 (MP) = assay: MIC, agar dilution
E. coli ATCC 25922 = assay: MIC, agar dilution
E. coli J3272 Tet D = assay: microbe, parasite or virus in culture
S. mariescens FPOR 8733 = assay: MIC, agar dilution
[4] = test system: X. maltophilia NEMC 87210; assay: MIC, agar dilution
[5] = test system: Ps. acruginosa ATCC 27853; assay: MIC, agar dilution
S. aureus NEMC 8769 = assay: MIC, agar dilution
S. aureus UBMS 88-4 = assay: MIC, agar dilution
[6] = test system: S. aureus UBMS 88-5 Tet M; assay: microbe, parasite or virus in culture
[7] = test system: S. aureus UBMS 90-1 Tet M; assay: microbe, parasite or virus in culture
S. aureus UBMS 90-3 = assay: MIC, agar dilution
[8] = test system: S. aureus UBMS 90-2 Tet M; assay: microbe, parasite or virus in culture
S. aureus SMITH (MP) = assay: MIC, agar dilution
S. aureus ATCC 29213 = assay: MIC, agar dilution
[9] = test system: S. hemolyticus AVHAH 88-3; assay: MIC, agar dilution
Enterococcus 12201 = assay: MIC, agar dilution
E. faecalis ATCC 29212 = assay: MIC, agar dilution
E. coli J3272 Tet sens. = assay: MIC, agar dilution; conditions: Escherichia coli, 18 h, read-out: MIC
E. coli J3272 Tet C = assay: microbe, parasite or virus in culture; conditions: Escherichia coli, J3272TETC, 18 h
[10] = test system: S. aureus UBMS 88-7 Tet K; assay: microbe, parasite or virus in culture
S. aureus IVES 2943 = assay: MIC, agar dilution
S. aureus ROSE (MP) = assay: MIC, agar dilution
S. aureus IVES 1 983 = assay: MIC, agar dilution
[11] = E. coli UBMS 88-1 Tet B, 18 hours at 35° C.

CN(C)c1cc(NC(=O)CNCCF)c(O)c2c1CC1CC3C(N(C)C)C(O)=C(C(N)=O)C(=O)C3(O)C(O)=C1C2=O (stereo not drawn) [T, [4S-(4alpha,12aalpha)]-4,7-Bis(dimethylamino)-9-[[[(2-fluoroethyl)amino]acetyl]amino]-1,4,4a,5,5a,6,11,12a-octahydro3,10,12,12a-tetrahydroxy-1,11-dioxo-2-naphthacenecarboxamide]
MIC (E. coli UBMS 88-1 Tet B; [11]): 16 mg/L (≈ 27.8 µM) | MIC [1]: 2 mg/L (≈ 3.47 µM) | MIC (E. coli PRP1 Tet A; E. coli PRP1 Tet A): > 32 mg/L | MIC ([2]; E. coli MC 4100 TNIOC Tet B): 16 mg/L (≈ 27.8 µM) | MIC (E. coli UBMS 89-1 Tet M; E. coli UBMS 89-1 Tet M): 8 mg/L (≈ 13.9 µM) | MIC ([3]; E. coli UBMS 89-2 Tet sens.): 16 mg/L (≈ 27.8 µM) | MIC (E. coli J2175; E. coli J2175): 16 mg/L (≈ 27.8 µM) | MIC (E. coli BAJ9003 IMP MUT; E. coli BAJ9003 IMP MUT): 1 mg/L (≈ 1.74 µM) | MIC (E. coli UBMS 90-4 Tet M; E. coli UBMS 90-4 Tet M): 8 mg/L (≈ 13.9 µM) | MIC (E. coli UBMS 90-5): 16 mg/L (≈ 27.8 µM) | MIC (E. coli #311 (MP); E. coli #311 (MP)): 16 mg/L (≈ 27.8 µM) | MIC (E. coli ATCC 25922; E. coli ATCC 25922): 8 mg/L (≈ 13.9 µM) | MIC (E. coli J3272 Tet D; E. coli J3272 Tet D): 8 mg/L (≈ 13.9 µM) | MIC (S. mariescens FPOR 8733): > 32 mg/L | MIC [4]: 16 mg/L (≈ 27.8 µM) | MIC ([5]; Ps. acruginosa ATCC 27853): > 32 mg/L | MIC (S. aureus NEMC 8769; S. aureus NEMC 8769): 4 mg/L (≈ 6.95 µM) | MIC (S. aureus UBMS 88-4; S. aureus UBMS 88-4): 4 mg/L (≈ 6.95 µM) | MIC ([6]; S. aureus UBMS 88-5 Tet M): 4 mg/L (≈ 6.95 µM) | MIC ([7]; S. aureus UBMS 90-1 Tet M): 4 mg/L (≈ 6.95 µM) | MIC (S. aureus UBMS 90-3; S. aureus UBMS 90-3): 2 mg/L (≈ 3.47 µM) | MIC ([8]; S. aureus UBMS 90-2 Tet M): 4 mg/L (≈ 6.95 µM) | MIC (S. aureus SMITH (MP); S. aureus SMITH (MP)): 1 mg/L (≈ 1.74 µM) | MIC (S. aureus ATCC 29213; S. aureus ATCC 29213): 4 mg/L (≈ 6.95 µM) | MIC ([9]; S. hemolyticus AVHAH 88-3): 8 mg/L (≈ 13.9 µM) | MIC (Enterococcus 12201; Enterococcus 12201): 2 mg/L (≈ 3.47 µM) | MIC (E. faecalis ATCC 29212; E. faecalis ATCC 29212): 1 mg/L (≈ 1.74 µM)

CN(C)[C@@H]1C(=O)C(C(N)=O)=C(O)[C@@]2(O)C(=O)C3=C(O)c4c(O)cccc4[C@@](C)(O)[C@H]3C[C@@H]12 [N, Tetracycline]
MIC (E. coli UBMS 88-1 Tet B; Escherichia coli, UBMS881TETB, 18 h): > 32 mg/L | MIC (E. coli J3272 Tet sens.): 0.5 mg/L (≈ 1.13 µM) | MIC (E. coli PRP1 Tet A; Escherichia coli, PRP1TETA, 18 h): 32 mg/L (≈ 72 µM) | MIC ([2]; Escherichia coli, 18 h): > 32 mg/L | MIC (E. coli J3272 Tet C): > 32 mg/L | MIC (E. coli UBMS 89-1 Tet M; Escherichia coli, UBMS891TETM, 18 h): 8 mg/L (≈ 18 µM) | MIC ([3]; Escherichia coli, 18 h): 1 mg/L (≈ 2.25 µM) | MIC (E. coli J2175; Escherichia coli, J2175, 18 h): 1 mg/L (≈ 2.25 µM) | MIC (E. coli BAJ9003 IMP MUT; Escherichia coli, BAJ9003IMPMUT, 18 h): 0.25 mg/L (≈ 0.563 µM) | MIC (E. coli UBMS 90-4 Tet M; Escherichia coli, UBMS904TETM, 18 h): 16 mg/L (≈ 36 µM) | MIC (E. coli UBMS 90-5; Escherichia coli, UBMS905, 18 h, read-out: MIC): 1 mg/L (≈ 2.25 µM) | MIC (E. coli #311 (MP); Escherichia coli, 18 h): 1 mg/L (≈ 2.25 µM) | MIC (E. coli ATCC 25922; Escherichia coli, ATCC25922, 18 h): 0.5 mg/L (≈ 1.13 µM) | MIC (E. coli J3272 Tet D; Escherichia coli, J3272TETD, 18 h): > 32 mg/L | MIC (S. mariescens FPOR 8733; 18 h, read-out: MIC): 32 mg/L (≈ 72 µM) | MIC ([5]; 18 h): 8 mg/L (≈ 18 µM) | MIC (S. aureus NEMC 8769; Staphylococcus aureus, NEMC8769, 18 h): 0.03 mg/L (≈ 0.0675 µM) | MIC (S. aureus UBMS 88-4; Staphylococcus aureus, UBMS884, 18 h): 0.06 mg/L (≈ 0.135 µM) | MIC ([6]; Staphylococcus aureus, UBMS885TETM, 18 h): > 32 mg/L | MIC ([10]; Staphylococcus aureus, UBMS887TETK, 18 h): > 32 mg/L | MIC ([7]; Staphylococcus aureus, UBMS901TETM, 18 h): 32 mg/L (≈ 72 µM) | MIC (S. aureus UBMS 90-3; Staphylococcus aureus, UBMS903, 18 h): 0.06 mg/L (≈ 0.135 µM) | MIC ([8]; Staphylococcus aureus, UBMS902TETM, 18 h): 32 mg/L (≈ 72 µM) | MIC (S. aureus IVES 2943; Staphylococcus aureus, IVES2943, 18 h): > 32 mg/L | MIC (S. aureus ROSE (MP); Staphylococcus aureus, 18 h): > 32 mg/L | MIC (S. aureus SMITH (MP); Staphylococcus aureus, 18 h): 0.06 mg/L (≈ 0.135 µM) | MIC (S. aureus IVES 1 983; Staphylococcus aureus, IVES1983, 18 h): > 32 mg/L | MIC (S. aureus ATCC 29213; Staphylococcus aureus, ATCC29213, 18 h): 0.06 mg/L (≈ 0.135 µM) | MIC ([9]; Streptococcus pyogenes, AVHAH883, 18 h): 0.5 mg/L (≈ 1.13 µM) | MIC (Enterococcus 12201; Enterococcus, 12201, 18 h): 32 mg/L (≈ 72 µM) | MIC (E. faecalis ATCC 29212; Enterococcus faecalis, ATCC29212, 18 h): 8 mg/L (≈ 18 µM)

CN(C)c1cc(NC(=O)CNCCCCO)c(O)c2c1C[C@H]1C[C@H]3[C@H](N(C)C)C(O)=C(C(N)=O)C(=O)[C@@]3(O)C(O)=C1C2=O [R]
MIC (E. coli UBMS 88-1 Tet B; [11]): > 32 mg/L | MIC [1]: 8 mg/L (≈ 13.3 µM) | MIC (E. coli UBMS 89-1 Tet M; E. coli UBMS 89-1 Tet M): 32 mg/L (≈ 53.2 µM) | MIC (E. coli BAJ9003 IMP MUT; E. coli BAJ9003 IMP MUT): 4 mg/L (≈ 6.65 µM) | MIC (E. coli #311 (MP); E. coli #311 (MP)): 32 mg/L (≈ 53.2 µM) | MIC (E. coli ATCC 25922; E. coli ATCC 25922): 32 mg/L (≈ 53.2 µM) | MIC (E. coli J3272 Tet D; E. coli J3272 Tet D): 8 mg/L (≈ 13.3 µM) | MIC (S. mariescens FPOR 8733): 8 mg/L (≈ 13.3 µM) | MIC [4]: 8 mg/L (≈ 13.3 µM) | MIC ([5]; Ps. acruginosa ATCC 27853): > 32 mg/L | MIC (S. aureus NEMC 8769; S. aureus NEMC 8769): 8 mg/L (≈ 13.3 µM) | MIC (S. aureus UBMS 88-4; S. aureus UBMS 88-4): 8 mg/L (≈ 13.3 µM) | MIC ([6]; S. aureus UBMS 88-5 Tet M): 32 mg/L (≈ 53.2 µM) | MIC ([10]; S. aureus UBMS 88-7 Tet K): 32 mg/L (≈ 53.2 µM) | MIC ([7]; S. aureus UBMS 90-1 Tet M): 32 mg/L (≈ 53.2 µM) | MIC (S. aureus UBMS 90-3; S. aureus UBMS 90-3): 8 mg/L (≈ 13.3 µM) | MIC ([8]; S. aureus UBMS 90-2 Tet M): 16 mg/L (≈ 26.6 µM) | MIC (S. aureus IVES 2943; S. aureus IVES 2943): > 32 mg/L | MIC (S. aureus ROSE (MP); S. aureus ROSE (MP)): > 32 mg/L | MIC (S. aureus SMITH (MP); S. aureus SMITH (MP)): 8 mg/L (≈ 13.3 µM) | MIC (S. aureus IVES 1 983; S. aureus IVES 1 983): > 32 mg/L | MIC (S. aureus ATCC 29213; S. aureus ATCC 29213): 16 mg/L (≈ 26.6 µM) | MIC ([9]; S. hemolyticus AVHAH 88-3): 32 mg/L (≈ 53.2 µM) | MIC (Enterococcus 12201; Enterococcus 12201): 8 mg/L (≈ 13.3 µM) | MIC (E. faecalis ATCC 29212; E. faecalis ATCC 29212): 8 mg/L (≈ 13.3 µM)
